In patent publication US10562842B2, “Use of polyaminoisoprenyl derivatives in antibiotic or antiseptic treatment” (UNIVERSITE D'AIX-MARSEILLE, priority 2011, dated 2020):

Legend:
[1] = test system: Enterobacter aerogenes MDR Ea289; assay: MIC of antibiotics ± test compound (MIC ratio), micro-broth dilution; format: cell-based; details: compound at MIC/4, Set 2; for MIC ratio (*) on Ea289 Dox: doxycycline; for MIC ratio (*) on Ea289 Nal: nalidixic acid
[2] = test system: Enterobacter aerogenes MDR Ea289; assay: as above; format: cell-based; details: Set 2; for MIC ratio (*) on Ea289 Chl: chloramphenicol, compound at MIC/4
Method: The process consists of treating the MDR bacteria with the compounds of the invention in the presence of antibiotics.
(§1) Susceptibilities to antibiotics and compounds were determined in microplates by broth dilution method, as previously described. Minimal Inhibitory Concentrations (MICs) were determined with an inoculum of 10^6 CFU in 200 μL of MH broth containing two-fold serial dilutions of each drug. […] All MIC determinations were repeated at least three times in independent experiments.
The MICs of chloramphenicol±test compounds (MIC/4) were determined by the micro-broth dilution method (9). All MIC determinations were repeated at least three times in independent experiments. The MIC ratio corresponds to the ratio of the MIC of an antibiotic alone to the MIC of the same antibiotic in the presence of the tested compound (at MIC/4).
The compounds listed in Table 2 were tested for their ability to decrease the chloramphenicol MIC of Ea289, an Enterobacter aerogenes MDR strain (1). Each compound was first tested at MIC/4. […] All MIC determinations were repeated at least three times in independent experiments.
(§2) For reminder, the MIC ratio corresponds to the ratio of the MIC of the assessed antibiotic alone to the MIC of the same antibiotic in the presence of the tested compound (at MIC/4).

[3] = test system: Salmonella Thyphimurium MDR BN10055; assay: as above; format: cell-based, Salmonella enterica serovar Typhimurium; details: Set 2; for MIC ratio (*) on BN10055 Chl: chloramphenicol; for MIC ratio (*) on BN10055 Chl / MIC ratio (*) on BN10055 Dox / MIC ratio (*) on BN10055 Nal: compound at MIC/4; for MIC ratio (*) on BN10055 Dox: doxycycline; for MIC ratio (*) on BN10055 Nal: nalidixic acid
Method: The Enterobacter aerogenes Ea289 strain is a Kans derivative of the MDR clinical isolate Ea27, the acrB mutant, EaEP294, was constructed from Ea289. Multidrug-resistant Salmonella enterica serovar Typhimurium DT104 strains (BN10055) was isolated from cattle in France, the isogenic acrB derivative mutant, BN10055ΔacrB, was constructed from BN10055. Strains were maintained at −80° C. in 25% (v/v) glycerol for cryoprotection. Bacteria were routinely grown in Mueller-Hinton (MH) broth at 37° C.
as §1
[…] All MIC determinations were repeated at least three times in independent experiments. The MIC ratio corresponds to the ratio of the MIC of an antibiotic alone to the MIC of the same antibiotic in the presence of the tested compound (at MIC/4).
as §2

[4] = test system: strain IV2571418 - Escherichia coli pig (resistant); assay: MIC of antibiotics in the presence and absence of test compound, veterinary strains; format: cell-based; design: MIC for strain IV2571418, Doxycycline in the presence of test compound: unit not given beside the values; details: compound at the Concentration (μM) (4-50)
Method: (§3) For each strain and each antibiotic, the MICs were determined in the presence and in the absence of one test compound.

[5] = test system: strain IV2571223 - Escherichia coli pig (sensible); assay: as above; format: cell-based; design: MIC for strain IV2571223, Doxycycline in the presence of test compound: unit not given beside the values; details: compound at the Concentration (μM) (2-50)
Method: as §3

[6] = test system: strain IV2570060 - Escherichia coli cattle (sensible); assay: as above; format: cell-based; details: compound at the Concentration (μM) (4-50)
Method: as §3

[7] = test system: strain IV2570533 - Escherichia coli cattle (resistant); assay: as above; format: cell-based; details: compound at the Concentration (μM) (0.896-12.6)
Method: as §3

Compound	MIC ratio (*) on Ea289 Dox [1]	MIC ratio (*) on Ea289 Nal [1]	MIC ratio (*) on Ea289 Chl [2]	MIC ratio (*) on BN10055 Chl [3]	MIC ratio (*) on BN10055 Dox [3]	MIC ratio (*) on BN10055 Nal [3]	MIC for strain IV2571418, Doxycycline in the presence of test compound [4]	MIC for strain IV2571418, Tylosine in the presence of test compound [4]	MICs for doxycycline and nalidixic acid, Ea289 ([2]; doxycycline and nalidixic acid)	MICs for doxycycline and nalidixic acid, BN100055 ([3]; doxycycline and nalidixic acid)	MIC for strain IV2571223, Doxycycline in the presence of test compound [5]	MIC for strain IV2571223, Tylosine in the presence of test compound [5]	MIC for strain IV2570060, Doxycycline in the presence of test compound [6]	MIC for strain IV2570060, Tylosine in the presence of test compound [6]	MIC for strain IV2570533, Doxycycline in the presence of test compound [7]	MIC for strain IV2570533, Tylosine in the presence of test compound [7]
CC(C)=CCC/C(C)=C/CC/C(C)=C/CNCCCCCN [Compound 18]	64	8	8-16	4-8	16	16										
CC(C)=CCC/C(C)=C/CC/C(C)=C/CNCCCNCCCCN [Compound 19]	64	16	8-16	8-16	16	64										
CC(C)=CCC/C(C)=C/CC/C(C)=C/CNCCCNCCCN [Compound 20]	32	8	8	8	32	64										
CCN(CC)CCNCCCNC/C=C(\C)CCC=C(C)C [Compound 21]	32	8	8-16	16	32	64										
CC(C)=CCC/C(C)=C/CC/C(C)=C/CNCCCN1CCCC1 [Compound 22]	32	16	8-16	16	32	128										
CC(C)=CCC/C(C)=C/CC/C(C)=C/CNCCCN1CCOCC1 [Compound 23]	32	8	8	8	16	32										
CC(C)=CCC/C(C)=C/CC/C(C)=C/CNCCNCCNCCNCCNCCN [Compound 35, [2-(2-{2-[2-(2-Amino-ethylamino)-ethylamino]-ethylamino}-ethylamino)-ethyl]-(3,7,11-trimethyl-dodeca-2,6,10-trienyl)-amine]							2	8	> 8	> 8	0.0625	32	0.0625	8	1	4
